Test results from ChEMBL document CHEMBL1201862, “PubChem BioAssay data set” (2004).
The source made the active and inactive calls.

How the values were obtained:
[1] = target: Photoreceptor-specific nuclear receptor (Homo sapiens, UniProt Q9Y5X4); type: functional;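 also: potency for compounds that break the NR2E3 corepressor complex and count as activators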
[2] = target: Peroxisome proliferator-activated receptor gamma/Nuclear receptor corepressor 2 (Homo sapiens, UniProt P37231+Q9Y618); type: functional
[3] = target: T1, Neuropeptide Y receptor type 2 (Homo sapiens, UniProt P49146); assay: IC50 for human NPY-Y2 blockade – cell-based, counter-screen for NPY-Y1 antagonist project, dose response (AID 1278); type: functional
T1 sequence (P49146 whole entry): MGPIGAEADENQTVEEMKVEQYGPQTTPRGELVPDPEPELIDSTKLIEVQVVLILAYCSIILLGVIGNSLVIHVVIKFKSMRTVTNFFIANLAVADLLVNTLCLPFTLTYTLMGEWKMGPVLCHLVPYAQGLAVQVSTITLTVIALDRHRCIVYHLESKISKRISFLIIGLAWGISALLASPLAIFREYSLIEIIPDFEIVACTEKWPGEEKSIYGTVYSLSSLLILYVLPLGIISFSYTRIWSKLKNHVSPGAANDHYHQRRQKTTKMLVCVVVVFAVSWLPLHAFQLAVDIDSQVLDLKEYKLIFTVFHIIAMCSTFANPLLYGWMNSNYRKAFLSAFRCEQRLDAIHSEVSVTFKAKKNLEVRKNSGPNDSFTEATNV

[4] = tested on: INS1; assay: INS-1E survival protection against cytokine death – cell-based, luminescence, retest, dose response (AID 449756); type: functional; details: Rattus norvegicus;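 also: cell death triggered by IL-1 beta plus TNF-alpha plus IFN-gamma mixture; protective hits raise ATP signal compared with cytokine alone wells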
[5] = target: T2, Neuropeptide Y receptor type 1 (Homo sapiens, UniProt P25929); assay: IC50 of human NPY-Y1 blockers – cell-based, dose response (AID 1277); type: functional
T2 sequence (P25929 whole entry): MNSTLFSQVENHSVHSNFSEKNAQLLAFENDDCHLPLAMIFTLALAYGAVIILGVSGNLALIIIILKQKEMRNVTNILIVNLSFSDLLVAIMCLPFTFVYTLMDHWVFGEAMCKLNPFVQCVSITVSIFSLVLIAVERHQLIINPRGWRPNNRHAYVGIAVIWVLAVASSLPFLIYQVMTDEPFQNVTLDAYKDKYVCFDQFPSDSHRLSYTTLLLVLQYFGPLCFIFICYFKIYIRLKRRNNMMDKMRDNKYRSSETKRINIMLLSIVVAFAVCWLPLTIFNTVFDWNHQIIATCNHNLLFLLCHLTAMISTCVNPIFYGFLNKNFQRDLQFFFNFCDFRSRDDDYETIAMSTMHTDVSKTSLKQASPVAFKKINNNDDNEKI

[6] = target: Neurotensin receptor type 1 (Homo sapiens, UniProt P30989); type: functional;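 also: Image-based confirmatory dose-response assay measuring agonist activity at NTR1; NTR1-expressing U2OS osteosarcoma cells imaged for beta-arrestin GFP spot formation; agonist potency where compounds increase beta-arrestin recruitment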
[7] = target: T2, Neuropeptide Y receptor type 1; type: functional
[8] = target: T3, Corticotropin-releasing factor receptor 2/Corticotropin-releasing factor-binding protein (Homo sapiens, UniProt P24387+Q13324); assay: Dose Response confirmation of uHTS hits for small molecule antagonists of the CRF-binding protein and CRF-R2 receptor complex.; type: functional; details: read-out: IC50_Mean
T3 sequence (Q13324 whole entry): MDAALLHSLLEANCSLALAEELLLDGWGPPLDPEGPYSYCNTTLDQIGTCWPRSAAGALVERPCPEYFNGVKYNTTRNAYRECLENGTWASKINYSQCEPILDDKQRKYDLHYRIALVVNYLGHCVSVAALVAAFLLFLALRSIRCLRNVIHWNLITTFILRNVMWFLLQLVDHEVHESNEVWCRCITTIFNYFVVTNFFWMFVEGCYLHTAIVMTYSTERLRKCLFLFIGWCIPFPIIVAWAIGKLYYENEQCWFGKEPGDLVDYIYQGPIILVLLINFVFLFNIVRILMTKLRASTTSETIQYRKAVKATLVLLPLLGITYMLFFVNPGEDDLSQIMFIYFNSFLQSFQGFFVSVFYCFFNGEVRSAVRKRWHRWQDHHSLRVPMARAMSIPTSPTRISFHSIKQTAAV
T3 sequence (P24387 whole entry): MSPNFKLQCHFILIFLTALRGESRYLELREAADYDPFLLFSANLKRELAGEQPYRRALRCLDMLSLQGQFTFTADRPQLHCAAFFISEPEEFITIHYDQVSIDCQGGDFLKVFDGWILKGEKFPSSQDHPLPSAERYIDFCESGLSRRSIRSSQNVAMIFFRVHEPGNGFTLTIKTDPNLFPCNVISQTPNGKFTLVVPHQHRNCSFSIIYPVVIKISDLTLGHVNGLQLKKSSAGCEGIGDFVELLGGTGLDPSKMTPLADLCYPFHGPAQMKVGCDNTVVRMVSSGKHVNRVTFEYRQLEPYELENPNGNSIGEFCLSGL

[9] = blockers of CRF-binding protein–CRF-R2 complex – cell-based, uHTS hits, 384-well, dose response (AID 651639); type: functional, Homo sapiens; details: read-out: IC50_Mean
[10] = target: T1, Neuropeptide Y receptor type 2; type: functional, cell-based
[11] = target: T3, Corticotropin-releasing factor receptor 2/Corticotropin-releasing factor-binding protein; assay: activators of CRF receptor 2 with binding protein – uHTS hits, confirmation (AID 602473); type: functional; details: read-out: EC50_Mean
[12] = HEK-293T cell viability reduction – luminescence, B-cell screen hits, cytotoxicity control for BCR NF-kB inhibitor project, dose response (AID 489021); type: functional, cell-based;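 also: HEK-293T cells carrying an NF-kB luciferase reporter; cells exposed to compound for about 14 hours before viability readout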
[13] = target: T4, Zinc finger protein mex-5 (Caenorhabditis elegans, UniProt Q9XUB2); assay: potency of MEX-5 RNA-binding blockers – biochemical, C. elegans, fluorescence polarization, dose response (AID 1960)
T4 sequence (Q9XUB2 whole entry): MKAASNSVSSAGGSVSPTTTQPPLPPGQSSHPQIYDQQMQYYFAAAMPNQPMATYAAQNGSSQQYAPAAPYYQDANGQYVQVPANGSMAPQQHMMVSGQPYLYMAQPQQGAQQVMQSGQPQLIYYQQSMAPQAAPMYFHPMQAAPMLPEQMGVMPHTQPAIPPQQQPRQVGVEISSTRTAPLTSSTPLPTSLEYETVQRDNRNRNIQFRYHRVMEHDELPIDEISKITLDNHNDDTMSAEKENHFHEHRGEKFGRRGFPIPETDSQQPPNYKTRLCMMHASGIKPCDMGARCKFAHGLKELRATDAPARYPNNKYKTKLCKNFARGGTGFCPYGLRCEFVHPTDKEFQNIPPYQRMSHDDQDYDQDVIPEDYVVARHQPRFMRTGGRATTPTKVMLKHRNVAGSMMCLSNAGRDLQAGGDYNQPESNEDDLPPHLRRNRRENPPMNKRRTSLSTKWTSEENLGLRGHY

[14] = target: T5, RNA-binding protein pos-1 (Caenorhabditis elegans, UniProt G5EF15); assay: disruptors of C. elegans POS-1 RNA interaction – biochemical, fluorescence polarization, dose response (AID 1964);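 also: purified POS-1 fused to maltose binding protein made in E. coli; potency of compounds blocking POS-1 binding to fluorescent RNA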
T5 sequence (G5EF15 whole entry): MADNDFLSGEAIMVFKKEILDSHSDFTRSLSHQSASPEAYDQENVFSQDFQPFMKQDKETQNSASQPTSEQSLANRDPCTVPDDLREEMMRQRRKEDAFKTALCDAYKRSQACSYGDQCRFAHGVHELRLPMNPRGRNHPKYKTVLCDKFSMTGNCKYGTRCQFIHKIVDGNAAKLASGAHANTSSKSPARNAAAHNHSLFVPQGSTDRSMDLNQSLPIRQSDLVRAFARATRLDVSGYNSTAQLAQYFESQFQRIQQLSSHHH

[15] = target: Ion channel NompC (Danio rerio, UniProt Q7T1G6); assay: Fluorescence counterscreen assay for TRPML3 agonists: dose response cell-based high-throughput screening assay to identify agonists of the transient receptor potential channel N1 (TRPN1). [Related pubchem assays: 1526, 1424, 1448 ]; type: functional
[16] = target: T6, Mucolipin-3 (Homo sapiens, UniProt Q8TDD5); assay: Dose response cell-based high-throughput screening assay for agonists of the transient receptor potential channel ML3 (TRPML3). [Related pubchem assays: 1526, 1424, 1448 ]; type: functional
T6 sequence (Q8TDD5 whole entry): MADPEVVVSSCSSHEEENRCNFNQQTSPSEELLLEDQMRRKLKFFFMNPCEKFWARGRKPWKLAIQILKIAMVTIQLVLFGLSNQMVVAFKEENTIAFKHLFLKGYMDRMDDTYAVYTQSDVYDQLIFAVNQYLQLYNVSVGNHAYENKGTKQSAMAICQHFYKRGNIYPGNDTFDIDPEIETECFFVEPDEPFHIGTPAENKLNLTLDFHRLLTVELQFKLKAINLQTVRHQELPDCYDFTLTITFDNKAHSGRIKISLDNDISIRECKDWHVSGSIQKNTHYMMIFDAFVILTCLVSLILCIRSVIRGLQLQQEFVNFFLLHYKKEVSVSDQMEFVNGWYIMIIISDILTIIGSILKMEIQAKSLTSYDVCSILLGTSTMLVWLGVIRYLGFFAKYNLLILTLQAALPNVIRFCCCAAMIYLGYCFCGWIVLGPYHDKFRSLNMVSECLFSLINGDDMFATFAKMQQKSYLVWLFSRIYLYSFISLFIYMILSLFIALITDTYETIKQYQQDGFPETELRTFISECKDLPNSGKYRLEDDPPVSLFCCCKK

[17] = tested on: Streptococcus; assay: GAS UMAA2166 growth inhibition – luminescence, BacTiterGlo, counter-screen for streptokinase expression inhibitor project, dose response (AID 1915); type: functional, organism-based;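 also: potency for reduction of bacterial viability or growth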
[18] = microbe, parasite or virus in culture; type: functional; details: Mycobacterium tuberculosis
[19] = target: T7, Streptokinase A (Streptococcus pyogenes serotype M1, UniProt P10520); assay: viability-normalized secreted streptokinase activity reduction – plasminogen activation absorbance, OD405, dose response (AID 1914); type: functional, Streptococcus pyogenes M1 GAS;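 also: secreted streptokinase activity via plasminogen activation per viability signal from cell pellet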
T7 sequence (P10520 whole entry): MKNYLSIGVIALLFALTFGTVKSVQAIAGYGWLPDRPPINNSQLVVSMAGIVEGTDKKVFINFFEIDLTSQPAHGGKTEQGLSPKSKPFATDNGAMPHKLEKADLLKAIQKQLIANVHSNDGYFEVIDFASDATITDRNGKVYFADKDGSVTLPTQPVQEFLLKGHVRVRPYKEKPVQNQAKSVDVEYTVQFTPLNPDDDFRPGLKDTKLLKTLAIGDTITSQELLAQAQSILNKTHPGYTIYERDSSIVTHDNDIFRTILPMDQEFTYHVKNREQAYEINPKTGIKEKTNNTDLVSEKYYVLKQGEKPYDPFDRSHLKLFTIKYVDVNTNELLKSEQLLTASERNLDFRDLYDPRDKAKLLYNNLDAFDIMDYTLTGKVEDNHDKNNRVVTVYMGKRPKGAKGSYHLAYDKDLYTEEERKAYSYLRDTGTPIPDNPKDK

[20] = tested on: Streptococcus sp. 'group A'; assay: Streptococcus pyogenes SK(-)GAS viability under kanamycin – luminescence, BacTiterGlo, confirmation, counter-screen for streptokinase expression inhibitor project, dose response (AID 1900); type: functional, organism-based
[21] = target: Melanin-concentrating hormone receptor 1 (Homo sapiens, UniProt Q99705); assay: Fluorescence-based counterscreen for antagonists of the G-protein coupled receptor 7 (GPR7): cell-based high throughput dose response assay to identify antagonists of the melanin-concentrating hormone receptor 1 (MCHR1).; type: functional
[22] = target: T8, Neuropeptides B/W receptor type 1 (Homo sapiens, UniProt P48145); assay: Fluorescence-based dose response cell-based high throughput screening assay to identify antagonists of the G-protein coupled receptor 7 (GPR7). [Related pubchem assays: 1952 (Screening assay (GPR7 antagonists).), 1880 (Summary AID.)]; type: functional
T8 sequence (P48145 whole entry): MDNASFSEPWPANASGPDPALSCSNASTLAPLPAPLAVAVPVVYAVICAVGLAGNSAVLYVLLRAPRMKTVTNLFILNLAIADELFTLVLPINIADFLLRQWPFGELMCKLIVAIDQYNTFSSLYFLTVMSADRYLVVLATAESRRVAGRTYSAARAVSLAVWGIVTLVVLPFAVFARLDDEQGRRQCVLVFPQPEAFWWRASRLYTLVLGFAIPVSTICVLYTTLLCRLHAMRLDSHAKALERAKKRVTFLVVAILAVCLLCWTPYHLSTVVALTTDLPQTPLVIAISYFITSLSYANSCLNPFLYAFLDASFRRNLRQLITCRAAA

Sequence of Peroxisome proliferator-activated receptor gamma/Nuclear receptor corepressor 2 (P37231 whole entry): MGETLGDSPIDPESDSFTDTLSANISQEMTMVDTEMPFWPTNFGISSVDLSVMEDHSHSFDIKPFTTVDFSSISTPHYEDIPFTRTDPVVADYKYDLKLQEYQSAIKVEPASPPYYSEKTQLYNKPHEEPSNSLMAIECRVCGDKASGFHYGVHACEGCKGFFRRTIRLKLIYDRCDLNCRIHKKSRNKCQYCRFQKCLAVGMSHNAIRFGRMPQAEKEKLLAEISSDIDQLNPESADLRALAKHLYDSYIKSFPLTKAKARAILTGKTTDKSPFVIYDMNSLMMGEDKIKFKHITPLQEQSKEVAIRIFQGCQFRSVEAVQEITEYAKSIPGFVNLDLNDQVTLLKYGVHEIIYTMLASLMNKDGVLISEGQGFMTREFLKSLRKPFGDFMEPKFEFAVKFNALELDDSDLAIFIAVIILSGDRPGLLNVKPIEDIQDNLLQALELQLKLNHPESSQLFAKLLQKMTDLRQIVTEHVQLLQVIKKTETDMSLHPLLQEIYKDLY
Sequence of Peroxisome proliferator-activated receptor gamma/Nuclear receptor corepressor 2 (Q9Y618 whole entry): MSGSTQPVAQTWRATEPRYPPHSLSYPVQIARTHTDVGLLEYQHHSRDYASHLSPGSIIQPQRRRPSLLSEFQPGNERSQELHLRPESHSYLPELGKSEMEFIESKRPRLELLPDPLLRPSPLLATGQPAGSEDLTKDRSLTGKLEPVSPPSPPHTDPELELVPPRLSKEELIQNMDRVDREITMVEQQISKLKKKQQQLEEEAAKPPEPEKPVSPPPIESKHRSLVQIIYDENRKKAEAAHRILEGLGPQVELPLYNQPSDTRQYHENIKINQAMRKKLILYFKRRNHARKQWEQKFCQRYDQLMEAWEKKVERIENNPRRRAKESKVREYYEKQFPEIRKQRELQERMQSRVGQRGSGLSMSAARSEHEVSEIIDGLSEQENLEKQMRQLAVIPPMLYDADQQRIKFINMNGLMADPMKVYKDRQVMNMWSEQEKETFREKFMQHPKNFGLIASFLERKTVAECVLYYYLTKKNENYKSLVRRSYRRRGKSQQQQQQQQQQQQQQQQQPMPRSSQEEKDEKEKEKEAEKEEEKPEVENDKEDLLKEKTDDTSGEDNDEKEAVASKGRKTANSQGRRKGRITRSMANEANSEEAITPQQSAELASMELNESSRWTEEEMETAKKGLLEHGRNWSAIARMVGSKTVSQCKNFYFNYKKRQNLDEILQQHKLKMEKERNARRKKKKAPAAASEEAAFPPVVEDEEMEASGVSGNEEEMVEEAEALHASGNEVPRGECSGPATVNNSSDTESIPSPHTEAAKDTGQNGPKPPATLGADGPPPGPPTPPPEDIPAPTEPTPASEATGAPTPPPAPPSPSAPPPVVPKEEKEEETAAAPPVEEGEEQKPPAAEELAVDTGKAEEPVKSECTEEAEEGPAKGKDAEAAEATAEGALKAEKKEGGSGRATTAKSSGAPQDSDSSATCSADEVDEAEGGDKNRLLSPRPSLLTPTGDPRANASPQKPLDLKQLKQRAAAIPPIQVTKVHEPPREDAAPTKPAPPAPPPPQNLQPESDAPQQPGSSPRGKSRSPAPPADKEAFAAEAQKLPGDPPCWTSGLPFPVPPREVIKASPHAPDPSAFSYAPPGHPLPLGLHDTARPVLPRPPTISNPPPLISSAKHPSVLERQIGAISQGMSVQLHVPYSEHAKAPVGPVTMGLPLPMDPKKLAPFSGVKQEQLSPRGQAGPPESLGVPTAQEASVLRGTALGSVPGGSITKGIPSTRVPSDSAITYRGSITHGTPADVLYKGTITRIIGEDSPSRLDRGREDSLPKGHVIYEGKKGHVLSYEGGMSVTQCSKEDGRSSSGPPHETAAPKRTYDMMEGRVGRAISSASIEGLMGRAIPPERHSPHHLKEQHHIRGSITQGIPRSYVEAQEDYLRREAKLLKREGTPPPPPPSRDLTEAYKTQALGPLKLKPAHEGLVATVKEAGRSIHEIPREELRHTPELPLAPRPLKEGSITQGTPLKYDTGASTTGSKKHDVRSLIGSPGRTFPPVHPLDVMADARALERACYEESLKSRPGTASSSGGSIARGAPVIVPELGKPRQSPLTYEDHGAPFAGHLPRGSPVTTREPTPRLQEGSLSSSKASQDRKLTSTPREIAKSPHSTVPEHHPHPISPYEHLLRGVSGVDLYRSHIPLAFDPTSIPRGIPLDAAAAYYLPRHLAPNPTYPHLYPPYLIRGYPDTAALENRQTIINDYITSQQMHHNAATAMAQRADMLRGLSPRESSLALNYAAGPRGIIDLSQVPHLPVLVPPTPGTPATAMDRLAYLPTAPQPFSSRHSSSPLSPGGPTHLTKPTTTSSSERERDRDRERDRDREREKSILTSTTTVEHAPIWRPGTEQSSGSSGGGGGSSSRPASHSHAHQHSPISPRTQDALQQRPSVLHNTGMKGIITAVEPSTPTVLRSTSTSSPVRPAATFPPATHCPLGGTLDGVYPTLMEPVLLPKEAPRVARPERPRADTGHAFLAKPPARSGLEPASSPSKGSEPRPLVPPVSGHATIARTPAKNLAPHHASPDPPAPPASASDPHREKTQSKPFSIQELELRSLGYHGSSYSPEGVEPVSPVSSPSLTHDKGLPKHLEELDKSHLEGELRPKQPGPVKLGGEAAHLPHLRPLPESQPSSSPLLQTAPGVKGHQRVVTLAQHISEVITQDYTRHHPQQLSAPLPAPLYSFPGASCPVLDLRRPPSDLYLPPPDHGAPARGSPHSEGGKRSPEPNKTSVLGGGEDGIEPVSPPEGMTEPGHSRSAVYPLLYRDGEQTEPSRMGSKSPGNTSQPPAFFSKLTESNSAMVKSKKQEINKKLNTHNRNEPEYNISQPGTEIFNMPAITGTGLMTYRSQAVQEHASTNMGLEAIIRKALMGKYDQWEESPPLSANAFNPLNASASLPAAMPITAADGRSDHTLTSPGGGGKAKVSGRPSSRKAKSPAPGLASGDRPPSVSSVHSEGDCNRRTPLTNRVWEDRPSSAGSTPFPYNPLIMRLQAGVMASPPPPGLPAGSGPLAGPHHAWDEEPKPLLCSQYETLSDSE
Sequence of Ion channel NompC (Q7T1G6 whole entry): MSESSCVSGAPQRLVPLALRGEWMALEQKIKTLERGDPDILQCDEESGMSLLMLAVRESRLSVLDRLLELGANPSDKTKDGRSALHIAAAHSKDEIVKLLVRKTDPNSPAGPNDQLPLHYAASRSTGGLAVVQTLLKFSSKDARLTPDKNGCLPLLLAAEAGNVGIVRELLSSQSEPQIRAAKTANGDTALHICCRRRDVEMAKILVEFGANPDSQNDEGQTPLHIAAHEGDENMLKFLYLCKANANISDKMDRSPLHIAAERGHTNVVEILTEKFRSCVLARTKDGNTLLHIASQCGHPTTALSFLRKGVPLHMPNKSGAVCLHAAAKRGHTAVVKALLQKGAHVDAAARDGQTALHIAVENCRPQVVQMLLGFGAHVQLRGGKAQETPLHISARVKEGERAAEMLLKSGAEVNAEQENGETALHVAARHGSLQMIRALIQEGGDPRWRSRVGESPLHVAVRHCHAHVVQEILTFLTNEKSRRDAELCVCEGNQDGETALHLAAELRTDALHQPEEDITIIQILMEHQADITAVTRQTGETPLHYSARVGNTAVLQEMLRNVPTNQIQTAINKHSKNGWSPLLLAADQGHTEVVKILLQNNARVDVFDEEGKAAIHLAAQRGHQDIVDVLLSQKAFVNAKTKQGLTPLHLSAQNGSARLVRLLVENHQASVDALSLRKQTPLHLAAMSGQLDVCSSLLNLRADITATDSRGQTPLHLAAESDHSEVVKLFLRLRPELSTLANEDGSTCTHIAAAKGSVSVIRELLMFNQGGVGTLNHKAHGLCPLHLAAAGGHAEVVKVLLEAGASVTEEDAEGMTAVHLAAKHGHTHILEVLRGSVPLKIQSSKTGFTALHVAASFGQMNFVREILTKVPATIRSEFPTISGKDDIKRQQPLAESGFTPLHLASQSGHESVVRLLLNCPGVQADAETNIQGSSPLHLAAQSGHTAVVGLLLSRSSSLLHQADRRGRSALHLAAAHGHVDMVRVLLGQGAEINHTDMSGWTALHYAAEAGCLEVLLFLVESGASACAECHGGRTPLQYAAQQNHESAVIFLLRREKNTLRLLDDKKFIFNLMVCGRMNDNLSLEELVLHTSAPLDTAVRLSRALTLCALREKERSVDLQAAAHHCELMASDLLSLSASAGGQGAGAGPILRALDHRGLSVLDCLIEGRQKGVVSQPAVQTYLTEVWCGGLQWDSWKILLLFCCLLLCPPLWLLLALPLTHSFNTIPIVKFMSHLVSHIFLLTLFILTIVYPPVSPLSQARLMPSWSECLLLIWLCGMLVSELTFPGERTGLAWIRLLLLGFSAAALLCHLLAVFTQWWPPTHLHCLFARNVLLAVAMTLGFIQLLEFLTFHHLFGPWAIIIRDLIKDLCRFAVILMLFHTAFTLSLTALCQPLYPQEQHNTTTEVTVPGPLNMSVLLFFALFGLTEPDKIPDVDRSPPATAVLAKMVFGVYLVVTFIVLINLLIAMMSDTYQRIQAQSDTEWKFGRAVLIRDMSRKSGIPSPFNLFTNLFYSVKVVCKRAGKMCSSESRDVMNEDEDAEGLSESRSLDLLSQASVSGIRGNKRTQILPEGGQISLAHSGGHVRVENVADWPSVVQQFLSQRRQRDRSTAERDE
Sequence of Photoreceptor-specific nuclear receptor (Q9Y5X4 whole entry): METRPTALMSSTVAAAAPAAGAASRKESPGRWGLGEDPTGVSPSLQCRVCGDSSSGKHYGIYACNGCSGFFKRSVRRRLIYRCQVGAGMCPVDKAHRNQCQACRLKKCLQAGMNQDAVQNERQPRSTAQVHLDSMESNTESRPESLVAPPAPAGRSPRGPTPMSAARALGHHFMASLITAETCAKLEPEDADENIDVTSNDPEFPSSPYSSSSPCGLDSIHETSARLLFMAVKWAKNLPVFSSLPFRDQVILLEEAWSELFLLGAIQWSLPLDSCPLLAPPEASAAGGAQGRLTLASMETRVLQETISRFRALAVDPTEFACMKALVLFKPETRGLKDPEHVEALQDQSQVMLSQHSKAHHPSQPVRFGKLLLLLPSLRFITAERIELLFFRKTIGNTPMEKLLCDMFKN

## O=C(C1=C(O)C(=O)N(CCN2CCOCC2)C1c1cccs1)c1cc2ccccc2o1 (stereo not given)
[1]
  IC50: > 39.8 µM (not active)
[2]
  IC50: 6.71 µM (active)

## CC(=O)OC1COC(OC2C(O)C(C)OC(OC3C(OC4CCC5(C)C(CCC6(C)C5CC=C5C7CC(C)(C)CCC7(C(=O)O)CCC56C)C4(C)CO)OCC(O)C3O)C2O)C(O)C1OC(C)=O (stereo not given)
[3]
  IC50: > 35 µM (not active)
[4]
  AC50: 5.67 µM (active)
[5]
  IC50: > 35 µM (not active)

## O=C(Nc1ccc2oc(-c3ccccc3F)nc2c1)c1ccc2c(c1)OCCO2
[6]
  EC50: 31.1 µM (inactive)

## COC(=O)c1ccc(CSc2nc3ccccc3c(=O)n2-c2ccccc2)o1
[7]
  IC50: 5.21 µM (active)
[8]
  IC50: 0.858 µM (active)
[9]
  IC50: 13.6 µM (active)
[10]
  IC50: 3.14 µM (active)
[11]
  EC50: > 53 µM (inactive)

## CCn1c(=O)cc(OCC(=O)N(C)C2CCCCC2)c2ccccc21
[12]
  IC50: > 80 µM (inactive)

## CC(=O)Nc1ccc(NC(=O)C(C)OC(=O)/C(C#N)=C/c2ccc(N(C)C)cc2)cc1 (stereo not given)
[1]
  IC50: > 39.8 µM (not active)
[2]
  IC50: > 39.8 µM (not active)
[13]
  EC50: 86.3 µM (inconclusive)
[14]
  EC50: 26.9 µM (active)

## O=C(Cc1ccc(Cl)c(Cl)c1)Nc1ccccc1N1CCOCC1
[15]
  EC50: 13.4 µM (not active)
[16]
  EC50: 2.89 µM (active)

## Oc1cccc(-c2nc3ccc4ccccc4c3c3c2CCC3)c1
[17]
  EC50: 53.6 µM (active)
[18]
  CC50: > 40 µM (active)
[19]
  EC50: 27.8 µM (active)
[7]
  IC50: 7.68 µM (active)
[10]
  IC50: 5.22 µM (active)
[20]
  EC50: 10 µM (active)

## CCCCN(C)C(=O)c1nc2ccccn2c1CN1CCN(C/C=C/c2ccccc2)CC1
[21]
  IC50: 16.6 µM (not active)
[22]
  IC50: > 43.8 µM (not active)

## Cc1ccc(N(C)S(=O)(=O)c2ccc(C)cc2)cc1
[15]
  EC50: > 29.9 µM (not active)
[16]
  EC50: 5.1 µM (active)

## O=C(c1ccco1)c1cn(Cc2ccc(Cl)cc2)c2ccccc12
[3]
  IC50: 9.22 µM (active)
[5]
  IC50: 6.69 µM (active)
